Laboratory results taken from US9963441B2, “Histone demethylase inhibitors” (CELGENE QUANTICEL RESEARCH, INC., priority 2013, dated 2018).

Target: T1, JMJD2C (Homo sapiens, UniProt Q9H3R0)
T1 construct: purchased BPS Bioscience 50105
T1 sequence (Q9H3R0 2-372): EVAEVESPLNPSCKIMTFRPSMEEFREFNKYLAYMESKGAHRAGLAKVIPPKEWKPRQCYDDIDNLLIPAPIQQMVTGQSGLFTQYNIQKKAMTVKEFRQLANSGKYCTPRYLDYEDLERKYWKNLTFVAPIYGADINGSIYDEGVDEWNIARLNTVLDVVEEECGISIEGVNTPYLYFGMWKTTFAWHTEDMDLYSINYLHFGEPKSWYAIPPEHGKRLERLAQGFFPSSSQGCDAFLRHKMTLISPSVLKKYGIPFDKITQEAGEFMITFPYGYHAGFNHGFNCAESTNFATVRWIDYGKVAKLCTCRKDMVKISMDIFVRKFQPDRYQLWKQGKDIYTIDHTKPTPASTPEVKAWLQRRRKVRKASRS
Experiment: JMJD2C in vitro enzyme inhibition assay (TR-FRET)
Format: biochemical
Experimental: This assay determines the ability of a test compound to inhibit Jarid1A, Jarid1B, JMJD2C, and JMJD2A demethylase activity. […] Baculovirus expressed JMJD2C (GenBank Accession #BC143571, AA 2-372) was purchased from BPS Bioscience (Cat#50105).
The ability of test compounds to inhibit the activity of JMJD2C was determined in 384-well plate format under the following reaction conditions: 0.3 nM JMJD2C, 300 nM H3K9me3-biotin labeled peptide (Anaspec cat #64360), 2 μM alpha-ketoglutaric acid in assay buffer of 50 mM HEPES, pH7.3, 0.005% Brij35, 0.5 mM TCEP, 0.2 mg/ml BSA, 50 μM sodium L-ascorbate, and 2 μM ammonium iron(II) sulfate. Reaction product was determined quantitatively by TR-FRET after the addition of detection reagent Phycolink Streptavidin-allophycocyanin (Prozyme) and Europium-anti-di-methylated histone H3 lysine 9 (H3K9me2) antibody (PerkinElmer) in the presence of 5 mM EDTA in LANCE detection buffer (PerkinElmer) at a final concentration of 50 nM and 1 nM, respectively.
The assay reaction was initiated by the following: 2 μl of the mixture of 900 nM H3K9me3-biotin labeled peptide and 6 μM alpha-ketoglutaric acid with 2 μl of 11-point serial diluted inhibitor in 3% DMSO were added to each well of the plate, followed by the addition of 2 μl of 0.9 nM JMJD2C to initiate the reaction. […]

Cn1cnc(-c2cc(-c3nn[nH]n3)ccn2)c1-c1ccc(Cl)c(OCc2ccccc2)c1 [Example 161, 2-[5-(4-chloro-3-phenylmethoxyphenyl)-1-methylimidazol-4-yl]-4-(2H-tetrazol-5-yl)pyridine]
IC50: 1 to 10 µM
